For data set [1], the system named is Listeria monocytogenes. In words: Antibacterial activity against Listeria monocytogenes ATCC 19111 assessed as reduction in bacterial cell growth incubated for 18 to 20 hrs by broth microdilution method. The class given is functional.
In data set [2] the test system is Staphylococcus aureus. In words: Bactericidal activity against vancomycin resistant Staphylococcus aureus VRS10 assessed as reduction in bacterial cell growth incubated for 18 to 20 hrs followed by re-plating on tryptic soy agar plates at 37 degC for 18 hrs by broth microdilution assay. The class given is functional. A general note: Dilution methods test growth across graded concentrations, often in twofold steps.

The test system of data set [3] is Enterococcus faecium. In words: Bactericidal activity against vancomycin resistant Enterococcus faecium ATCC 700221 assessed as reduction in bacterial cell growth incubated for 18 to 20 hrs followed by re-plating on tryptic soy agar plates at 37 degC for 18 hrs by broth microdilution assay. The class given is functional.
The subject of data set [4] is Staphylococcus aureus. The data set is described as follows: Bactericidal activity against Staphylococcus aureus ATCC 6538 assessed as reduction in bacterial cell growth incubated for 18 to 20 hrs followed by re-plating on tryptic soy agar plates at 37 degC for 18 hrs by broth microdilution assay. It counts as functional.
Data set [5] has as its system Enterococcus faecalis. The data set is described as follows: Antibacterial activity against vancomycin resistant Enterococcus faecalis ATCC 51299 assessed as reduction in bacterial cell growth incubated for 18 to 20 hrs by broth microdilution method. It counts as functional.
For data set [6], the system named is Staphylococcus aureus. In words: Bactericidal activity against Staphylococcus aureus NRS107 assessed as reduction in bacterial cell growth incubated for 18 to 20 hrs followed by re-plating on tryptic soy agar plates at 37 degC for 18 hrs by broth microdilution assay. It counts as functional.
In data set [7] the test system is Staphylococcus aureus. The data set is described as follows: Antibacterial activity against vancomycin resistant Staphylococcus aureus VRS12 assessed as reduction in bacterial cell growth incubated for 18 to 20 hrs by broth microdilution method. It counts as functional.
For data set [8], the system named is Streptococcus pneumoniae. In words: Antibacterial activity against Methicillin resistant Streptococcus pneumoniae ATCC 700677 assessed as reduction in bacterial cell growth incubated for 18 to 20 hrs by broth microdilution method. The class given is functional.
Data set [9] concerns Staphylococcus aureus. In words: Antibacterial activity against vancomycin resistant Staphylococcus aureus VRS10 assessed as reduction in bacterial cell growth incubated for 18 to 20 hrs by broth microdilution method. The class given is functional.
Data set [10] has as its system Staphylococcus aureus. The data set is described as follows: Antibacterial activity against intracellular methicillin resistant Staphylococcus aureus USA400 infected in mouse J774 cells assessed as log10 reduction of viable bacterial cells incubated for 24 hrs followed by re-plating on tryptic soy agar plates at 37 degC for 18 to 22 hrs by broth microdilution assay. It counts as functional.

The subject of data set [11] is Enterococcus faecium. In words: Antibacterial activity against vancomycin resistant Enterococcus faecium ATCC 700221 assessed as reduction in bacterial cell growth incubated for 18 to 20 hrs by broth microdilution method. It counts as functional.
Data set [12] concerns Streptococcus pneumoniae. In words: Antibacterial activity against Cephalosporin resistant Streptococcus pneumoniae ATCC 51916 assessed as reduction in bacterial cell growth incubated for 18 to 20 hrs by broth microdilution method. The class given is functional.
Data set [13] deals with Staphylococcus aureus. In words: Antibacterial activity against methicillin-resistant Staphylococcus aureus USA400 assessed as reduction in CFU at 4 x MIC preincubated for 12 hrs in Tryptic soy broth followed by incubation for 18 to 20 hrs on TSA plate by time-kill assay. It counts as functional.
In data set [14] the test system is Enterococcus faecalis. In words: Bactericidal activity against vancomycin resistant Enterococcus faecalis ATCC 51299 assessed as reduction in bacterial cell growth incubated for 18 to 20 hrs followed by re-plating on tryptic soy agar plates at 37 degC for 18 hrs by broth microdilution assay. It counts as functional.
The subject of data set [15] is Streptococcus pneumoniae. In words: Bactericidal activity against Cephalosporin resistant Streptococcus pneumoniae ATCC 51916 assessed as reduction in bacterial cell growth incubated for 18 to 20 hrs followed by re-plating on tryptic soy agar plates at 37 degC for 18 hrs by broth microdilution assay. It counts as functional.
The subject of data set [16] is Staphylococcus aureus. In words: Bactericidal activity against vancomycin resistant Staphylococcus aureus VRS12 assessed as reduction in bacterial cell growth incubated for 18 to 20 hrs followed by re-plating on tryptic soy agar plates at 37 degC for 18 hrs by broth microdilution assay. The class given is functional.
For data set [17], the system named is Staphylococcus aureus. In words: Antibacterial activity against vancomycin resistant Staphylococcus aureus VRS11a assessed as reduction in bacterial cell growth incubated for 18 to 20 hrs by broth microdilution method. It counts as functional.
The subject of data set [18] is Staphylococcus aureus. The data set is described as follows: Bactericidal activity against methicillin-resistant Staphylococcus aureus USA300 assessed as reduction in bacterial cell growth incubated for 18 to 20 hrs followed by re-plating on tryptic soy agar plates at 37 degC for 18 hrs by broth microdilution assay. It counts as functional.
The test system of data set [19] is Staphylococcus aureus. In words: Bactericidal activity against methicillin resistant Staphylococcus aureus NRS119 assessed as reduction in bacterial cell growth incubated for 18 to 20 hrs followed by re-plating on tryptic soy agar plates at 37 degC for 18 hrs by broth microdilution assay. The class given is functional.
Data set [20] relates to Staphylococcus aureus. In words: Bactericidal activity against vancomycin resistant Staphylococcus aureus VRS11a assessed as reduction in bacterial cell growth incubated for 18 to 20 hrs followed by re-plating on tryptic soy agar plates at 37 degC for 18 hrs by broth microdilution assay. It counts as functional.
Data set [21] relates to J774. The data set is described as follows: Cytotoxicity against mouse J774 assessed as reduction in cell viability at 16 ug/ml incubated for 24 hrs by MTS assay. It counts as cell-based. To be noted: j774, 24 h. For orientation: Formazan colour is commonly taken as a measure of viable cells.
Data set [22] can be described thus: Solubility of compound in PBS after 2 hrs by turbidity based absorbance analysis. The class given is physicochemical.
The test system of data set [23] is Escherichia coli. The data set is described as follows: Bactericidal activity against Escherichia coli JW55031 harboring deltatolC mutant assessed as reduction in bacterial cell growth incubated for 18 to 20 hrs followed by re-plating on tryptic soy agar plates at 37 degC for 18 hrs by broth microdilution assay. The class given is functional.
Data set [24] deals with Pseudomonas aeruginosa. The data set is described as follows: Bactericidal activity against Pseudomonas aeruginosa ATCC 15442 assessed as reduction in bacterial cell growth incubated for 18 to 20 hrs followed by re-plating on tryptic soy agar plates at 37 degC for 18 hrs by broth microdilution assay. It counts as functional.
Data set [25] relates to Escherichia coli. The data set is described as follows: Antibacterial activity against Escherichia coli JW55031 harboring deltatolC mutant assessed as reduction in bacterial cell growth incubated for 18 to 20 hrs by broth microdilution method. The class given is functional.
The test system of data set [26] is Klebsiella pneumoniae. The data set is described as follows: Bactericidal activity against Klebsiella pneumoniae BAA-1706 assessed as reduction in bacterial cell growth incubated for 18 to 20 hrs followed by re-plating on tryptic soy agar plates at 37 degC for 18 hrs by broth microdilution assay. The class given is functional.
Data set [27] concerns Klebsiella pneumoniae. The data set is described as follows: Antibacterial activity against Klebsiella pneumoniae BAA-1706 assessed as reduction in bacterial cell growth incubated for 18 to 20 hrs by broth microdilution method. The class given is functional.
Data set [28] relates to Pseudomonas aeruginosa. The data set is described as follows: Antibacterial activity against Pseudomonas aeruginosa ATCC 15442 assessed as reduction in bacterial cell growth incubated for 18 to 20 hrs by broth microdilution method. The class given is functional.
Data set [29] has as its system Acinetobacter baumannii. In words: Antibacterial activity against Acinetobacter baumannii ATCC 19606 assessed as reduction in bacterial cell growth incubated for 18 to 20 hrs by broth microdilution method. It counts as functional.
Data set [30] has as its system Escherichia coli. The data set is described as follows: BActericidal activity against Escherichia coli BW25113 assessed as reduction in bacterial cell growth incubated for 18 to 20 hrs followed by re-plating on tryptic soy agar plates at 37 degC for 18 hrs by broth microdilution assay. It counts as functional.
For data set [31], the system named is Escherichia coli. In words: Antibacterial activity against Escherichia coli BW25113 assessed as reduction in bacterial cell growth incubated for 18 to 20 hrs by broth microdilution method. The class given is functional.
Data set [32] deals with Acinetobacter baumannii. In words: Bactericidal activity against Acinetobacter baumannii ATCC 19606 assessed as reduction in bacterial cell growth incubated for 18 to 20 hrs followed by re-plating on tryptic soy agar plates at 37 degC for 18 hrs by broth microdilution assay. It counts as functional.

In brackets after ≈: the same amount, converted by molar mass. Activity calls are given as the source filed them.

As a reminder, the MIC is the least concentration at which growth counts as inhibited. Usually MBC stands for the smallest concentration meeting the test's criterion for killing. As for `CN[C@H](CC(C)C)C(=O)N[C@H]1C(=O)N[C@@H](CC(N)=O)C(=O)N[C@H]2C(=O)N[C@H]3C(=O)N[C@H](C(=O)N[C@H](C(=O)O)c4cc(O)cc(O)c4-c4cc3ccc4O)[C@H](O)c3ccc(c(Cl)c3)Oc3cc2cc(c3O[C@@H]2O[C@H](CO)[C@@H](O)[C@H](O)[C@H]2O[C@H]2C[C@](C)(N)[C@H](O)[C@H](C)O2)Oc2ccc(cc2Cl)[C@H]1O` [VANCOMYCIN], the MIC is 1 µg/mL (≈ 0.69 µM) in data set [1]; 32 µg/mL (≈ 22.1 µM) in [5]; 64 µg/mL (≈ 44.2 µM) in data set [7]; 2 µg/mL (≈ 1.38 µM) in data set [8]; above 64 µg/mL in data set [9]; above 64 µg/mL in [11]. Also, the MIC in data set [12] was 1 µg/mL (≈ 0.69 µM); in data set [17] it was above 64 µg/mL. Moreover, the MBC in data set [2] was above 64 µg/mL; in data set [3] it was above 64 µg/mL; in data set [4], 1 µg/mL (≈ 0.69 µM); in [6] it was 2 µg/mL (≈ 1.38 µM); in [14] it was above 64 µg/mL; in data set [15], 1 µg/mL (≈ 0.69 µM). For the same molecule, the MBC in [16] was 64 µg/mL (≈ 44.2 µM); in [18], 4 µg/mL (≈ 2.76 µM); in data set [19] it was 1 µg/mL (≈ 0.69 µM); in data set [20], above 64 µg/mL. The inhibition entry in data set [10] is “inactive”. In addition, the inhibition entry in data set [13] was “Active”.

For orientation: solubility (kinetic) means solubility judged after dilution from a stock solution rather than from solid. Take `C/C(=N\NC(=N)N)c1sc(-c2ccc(C#Cc3ccccc3)cc2)nc1C`: the Activity result in data set [21] is given as “Toxic”. Also, the kinetic solubility at 2 h in [22] was found to be 2.5 µM (≈ 0.934 µg/mL).

On to COLISTIN, for which the MBC in data set [23] is below 0.5 µg/mL; in data set [24] it was 1 µg/mL; in data set [26] it was below 0.5 µg/mL; in data set [30] it was below 0.5 µg/mL; in data set [32], below 0.5 µg/mL. In addition, the MIC in data set [25] is below 0.5 µg/mL; in [27] it was below 0.5 µg/mL; in data set [28], 1 µg/mL; in data set [29] it was below 0.5 µg/mL; in data set [31], below 0.5 µg/mL.

The values above are taken from ChEMBL document CHEMBL4393697, “Lipophilic efficient phenylthiazoles with potent undecaprenyl pyrophosphatase inhibitory activity” (Eur J Med Chem, 2019).
